Test results from US12133924B2, “Compositions and methods for organ specific delivery of nucleic acids” (The Board of Regents of The University of Texas System, priority 2018, dated 2024).

Columns and labels:
[1] = tested on: C57BL/6 mice; assay: In vivo Luc mRNA delivery after IV injection, ex vivo organ luminescence; design: species or system mouse; settings: 6 h; for organ of luciferase expression (tissue specific mRNA delivery): IV, 0.1 mg/kg Luc mRNA
Protocol: Next, to test the ability of these mDLNPs to deliver mRNA in vivo, mice were injected with a dose of 0.1 mg/kg of Luc mRNA in each of the formulations. […] Assuming that luciferase expression was detected only in liver, spleen and lung after IV injection, the percentage of luciferase expressed in each organ can be calculated (FIG. 1C). […] However, the greater the DOTAP percentage, the more luminescence is seen in lung tissues, with close to 100% of luminescence seen in the lung when DOTAP percentage is greater than 80% (FIG. 1C).
C57BL/6 mice with weight of 18-20 g, were IV injected by various Luc mRNA formulations at a dose of 0.1 or 0.05 mg/kg. n=2-4 per group. After 6 h, mice were intraperitoneal (IP) injected with D-Luciferin (150 mg/kg) and imaged by an IVIS Lumina system (Perkin Elmer). For biodistribution, C57BL/6 mice were IV injected with Cy5-Luc mRNA formulations at a dose of 0.5 mg/kg. Ex vivo imaging (Cy5 channel) was performed 6 h post injection.

[2] = tested on: Td-Tomato mice; assay: sgRNA screening in Td-Tomato mice; assay type: in vivo, mouse; settings: mDLNP, Cas9/sgRNA 4/1 wt/wt, total 3 mg/kg IV, day 7
Excerpt: These sgRNAs are sgTom1, sgTom2 and sgLoxP. […] Considering the weak PAM of sgLoxP (NAG), sgTom1 was finally chosen for further experiments.

[3] = tested on: HeLa-Luc cells; assay: Cellular uptake and uptake mechanism in HeLa-Luc cells; assay type: cell-based; settings: pre-incubation 1 h, then 24 nM sgLuc, 30 min
Excerpt: First, DOTNPs containing Cas9/sgRNA RNPs that were tagged by a green fluorescent EGFP were tracked by confocal microscopy (FIG. 12A). […] Green: EGFP fused Cas9 protein; Blue: nuclei stained with Hoechst 33342. Red arrows indicated the process of DOTNP10 entering into nucleus. (FIG. 12B)
To evaluate this strategy, 5A2-SC8 was selected as the ionizable cationic lipid because 5A2-SC8 LNPs safely deliver short siRNAs/miRNAs and long mRNAs to mice with compromised liver function, including MYC-driven liver cancer (Zhou et al., 2016; Zhang et al., 2018a; Zhang et al., 2018b) or genetic knockout of fumarylacetoacetate hydrolase (FAH) (Cheng et al., 2018). Introduction of a permanently cationic lipid (e.g. DOTAP) into traditional 4-component 5A2-SC8 LNP formulations indeed allowed controlled self-assembly to occur by mixing an ethanol solution of lipids with a PBS solution of RNPs (1/3, v/v). […] Initially using sgRNA targeting reporter Luciferase (sgLuc), the size of LNPs with 10 mole % DOTAP incorporation (5A2-DOT-10: 5A2-SC8/DOPE/Cho1/DMG-PEG/DOTAP=15/15/30/3/7 (mol/mol)) was observed, prepared using PBS buffer were slightly larger than nanoparticles without RNP loading. […]
To examine the uptake mechanism, assays of specific inhibition on endocytosis pathways were evaluated using Hela-Luc cells. […] The cells were then collected and analyzed by flow cytometry. […]

[4] = tested on: C57BL/6 mice; assay: Biodistribution of Cy5-Luc mRNA formulations; assay type: in vivo, mouse; settings: IV, 0.5 mg/kg, 6 h
Protocol: To test the organ biodistributions of specific DOTAP formulations in greater depth, PBS or liver targeting NPs (mDLNP), spleen targeting NPs (DOTAP10) and lung targeting NPs (DOTAP50) were injected into C57BL/6 mice (n=2) at a dose of 0.5 mg/kg Cy5-Luc mRNA (dye labeled mRNA to track RNA LNPs). 6 h post injection, major organs were collected and imaged (FIG. 3A). The organ distribution of formulations was changed by the amount of DOTAP, and accumulation in liver gradually moved to lung with increasing DOTAP percentages, but regardless of DOTAP percentage, there are still NPs present in the liver (FIG. 7, FIG. 8). […] Further, considering the similar size distribution and EE between these formulations, zeta-potential and pKa may play roles in tissue targeting mRNA expression.
Mechanistic experiments were conducted to explore how and why inclusion of extra lipids in defined categories controls mRNA delivery to different organs. It is logical that LNPs that deliver to cells within the lungs should biodistribute (accumulate) in the lungs. Cy5-labeled mRNA was delivered to track the in vivo distribution of 5A2-SC8 LNPs containing SORT lipids with lung (DOTAP quaternary amino lipid), spleen (18PA anionic lipid and DSPC zwitterionic lipid) and liver (DODAP ionizable tertiary amino lipid) tropism (FIGS. 27A & 28). […]

Compound	organ of luciferase expression (tissue specific mRNA delivery) [1]	also measured
CCCCCCCCCCCCCCCCCC[N+](C)(C)CCCCCCCCCCCCCCCCCC [DDAB, dimethyldioctadecylammonium]	liver to spleen to lung based on SORT lipid percentage	organ of luciferase signal at 40% SORT lipid ([1]; 0.1 mg/kg): high luciferase signal was observed exclusively in the lungs
CCCCCCCCCCC(O)CN(CCN1CCN(CCN(CC(O)CCCCCCCCCC)CC(O)CCCCCCCCCC)CC1)CCN(CC(O)CCCCCCCCCC)CC(O)CCCCCCCCCC (stereo not shown) [C12-200]	enhanced liver delivery without any luciferase expression in the lungs	delivery efficacy compared with original mDLNP formulation ([1]; 0.1 mg/kg, n=2): much better delivery efficacy than original mDLNP formulation
CCCCCCCCCCCCCC(=O)OCC(COP(=O)(OCC)OCC[N+](C)(C)C)OC(=O)CCCCCCCCCCCCC.Cl (stereo not shown) [EPC, 1,2-dimyristoyl-sn-glycero-3-ethylphosphocholine]	liver to spleen to lung based on SORT lipid percentage	organ of luciferase signal at 40% SORT lipid ([1]; 0.1 mg/kg): high luciferase signal was observed exclusively in the lungs
CCCCCCCCCCCCCCCCCC(=O)OC[C@H](COP(=O)([O-])OCC[N+](C)(C)C)OC(=O)CCCCCCCCCCCCCCCCC [DSPC, 1,2-distearoyl-sn-glycero-3-phosphocholine]	move from liver to spleen	–
sgTom1: sgRNA, AAGTAAAACCTCTACAAATG (SEQ ID NO: 1) (chemically modified sgRNA from Synthego, pattern not given here)	–	induction of TdTomato in liver [2]: more successful at inducing TdTomato than sgTom2
Methyl-o-cyclodextrin [MβCD]	–	effect of endocytosis inhibitor on uptake of 5A2-DOT-10 LNPs [3]: significantly inhibited
CCCCCCCCCCCCCC(=O)OC[C@H](COP(=O)(O)O)OC(=O)CCCCCCCCCCCCC [14PA, 1,2-dimyristoyl-sn-glycero-3-phosphate]	exclusively spleen	–
CCCCCCCC/C=C\CCCCCCCC(=O)OC[C@H](COP(=O)(O)O)OC(=O)CCCCCCC/C=C\CCCCCCCC [18PA, 1,2-dioleoyl-sn-glycero-3-phosphate]	exclusively spleen	organ distribution of Cy5-labeled mRNA [4]: increased uptake into the spleen
CCCCCCCC/C=C\CCCCCCCC(=O)OCC(C[N+](C)(C)C)OC(=O)CCCCCCC/C=C\CCCCCCCC (stereo not shown) [DOTAP, 1,2-dioleoyl-3-trimethylammonium-propane]	liver to spleen to lung based on SORT lipid percentage	organ distribution of Cy5-labeled mRNA [4]: progressive increase in lung accumulation; mRNA delivery when added to C2 LNPs (no ionizable cationic lipid) ([1]; 0.1 mg/kg, n=2): failed to enable significant mRNA delivery
CCCCCCCC/C=C\CCCCCCCC(=O)OCC(CN(C)C)OC(=O)CCCCCCC/C=C\CCCCCCCC (stereo not shown) [DODAP, 1,2-dioleoyl-3-dimethylammonium-propane]	enhanced liver delivery without any luciferase expression in the lungs	mRNA delivery when added to C2 LNPs (no ionizable cationic lipid) ([1]; 0.1 mg/kg, n=2): failed to enable significant mRNA delivery
CCCCCCCC/C=C\CCCCCCCC(=O)OCC(O)COP(=O)(O)OCC(COC(=O)CCCCCCC/C=C\CCCCCCCC)OC(=O)CCCCCCC/C=C\CCCCCCCC (stereo not shown) [18BMP, sn-(3-oleoyl-2-hydroxy)-glycerol-1-phospho-sn-3′-(1′,2′-dioleoyl)-glycerol]	exclusively spleen	–
CCCCCCCC/C=C\CCCCCCCC(=O)OCC(C[N+](C)(C)CCOP(=O)([O-])OCC)OC(=O)CCCCCCC/C=C\CCCCCCCC (stereo not shown) [DOCPe, 2-((2,3-bis(oleoyloxy)propyl)dimethylammonio)ethyl ethyl phosphate]	move from liver to spleen	–
